One experiment has as its system L1210. Put plainly: Cytotoxicity, line L1210 (Microculture Tetrazolium Assay). In kind it is cell-based, murine. To be noted: Mus musculus, L1210, 48 h; 2 days incubation; read-out: Cytotoxicity IC50, line L1210. An excerpt:
The cells are distributed on microplates and exposed to the cytotoxic compounds.
As for `COc1ccc2c(c1)c1cc3c(C(=O)NCCN(C)C)nccc3c(C)c1n2C` [Example 3, 1-(N,N-Dimethylaminoethylaminocarbonyl)-5,6-dimethyl-9-methoxy-6H-pyrido[4,3-b]carbazole], the IC50 was 0.574 µM. Consider `COc1ccc2c(c1)c1cc3c(C(=O)NCCCN(C)C)nccc3c(C)c1n2C` [Example 4, 1-(N,N-Dimethylaminopropylaminocarbonyl)-5,6-dimethyl-9-methoxy-6H-pyrido[4,3-b]carbazole], for which the IC50 is 0.875 µM. For the molecule `COc1ccc2[nH]c3c(C)c4ccnc(C(=O)NCCCN(C)C)c4cc3c2c1` [Example 5, 1-(N,N-Dimethylaminopropylaminocarbonyl) -5-methyl-9-methoxy-6H-pyrido[4,3-b]carbazole], the IC50 was 1.5 µM. As for `Cc1c2ccnc(C(=O)NCCCN(C)C)c2cc2c1[nH]c1ccc(O)cc12` [Example 7, 1-(N,N-Dimethylaminopropylaminocarbonyl)-5-methyl-9-hydroxy-6H-pyrido[4,3-b]carbazole], the IC50 was 0.041 µM. With `COc1ccc2[nH]c3c(C)c4ccnc(C(=O)NCCN(C)C)c4cc3c2c1` [Example 8, 1-(N,N-Dimethylaminoethylaminocarbonyl)-5-methyl-9-methoxy-6H-pyrido[4,3-b]carbazole], the IC50 worked out at 0.487 µM. Consider `COc1ccc2[nH]c3c(C)c4ccnc(C(=O)NCCN5CCCC5)c4cc3c2c1` [Example 9, 1-[2-(Pyrrolidin-1-yl)ethylaminocarbonyl]-5-methyl-9-methoxy-6H-pyrido[4,3-b]carbazole], for which the IC50 is 1.5 µM. Turning to `Cc1c2ccnc(C(=O)NCCNCCO)c2cc2c3cc(O)ccc3n(C)c12` [Example 11, 1-{2-[(2-Hydroxyethyl)amino]ethylaminocarbonyl}-5,6-dimethyl-9-hydroxy-6H-pyrido [4,3-b]carbazole], the IC50 was 0.0297 µM.

Turning to `Cc1c2ccnc(C(=O)NCCCCN)c2cc2c3cc(O)ccc3n(C)c12` [Example 12, 1-[(4-Aminobutyl)aminocarbonyl]-5,6-dimethyl-9-hydroxy-6H-pyrido[4,3-b]carbazole], the IC50 is 0.45 µM.

For the molecule `Cc1c2ccnc(C(=O)NCCN3CCCC3)c2cc2c3cc(O)ccc3n(C)c12` [Example 13, 1-[N-(2-Pyrrolidin-1-ylethyl)aminocarbonyl]-5,6-dimethyl-9-hydroxy-6H-pyrido[4,3-b]carbazole], the IC50 stood at 0.0131 µM. Consider `Cc1c2ccnc(C(=O)NCCCN3CCOCC3)c2cc2c3cc(O)ccc3n(C)c12` [Example 14, 1-[N-(3-Morpholinopropyl)aminocarbonyl]-5,6-dimethyl-9-hydroxy-6H-pyrido[4,3-b]carbazole], for which the IC50 stood at 0.0104 µM.

The test system of the next experiment is colon 38. Put plainly: Anti-tumour activity against colon 38. In kind it is in vivo, female B6D2F1 mice. To be noted: 80 mg/kg, i.v., d2 and d9, d25. How it is done: Colon 38 (supplied by NCI, Frederick, USA) was inserted in the form of fragments by the subcutaneous route into female B6D2F1 mice. The compounds were administered by the i.v. route on d2 and d9 and the anti-tumour activity was determined on […] by measuring the tumour volume (T/C volume, %).
Turning to `O=c1[nH]cc(F)c(=O)[nH]1` [Example 5-Fu, 5-fluorouracyle, reference compound], the “median T/C (tumour volume)” value is recorded as 0%.

Usually IC50 stands for the concentration that inhibits the measured activity by half.

(Values after patent US5407940A, “New ellipticine compounds” (priority 1992, dated 1995).)
